{"source": "paper PMC3064100", "about": "(Diabetes, 2011)", "assay_type_in_all_cases": "in vivo, human", "details_in_all_cases": "i.v. infusion over 360 min, type 2 diabetic patients", "key": {"[1]": {"test_system": "patients with type 2 diabetes", "assay": "Plasma glucagon during 360-min intravenous infusion"}, "[2]": {"test_system": "patients with type 2 diabetes", "assay": "Plasma free"}, "[3]": {"test_system": "patients with type 2 diabetes", "assay": "Insulin secretion rates by deconvolution of C-peptide"}, "[4]": {"test_system": "patients with type 2 diabetes", "assay": "Capillary plasma glucose during 360-min intravenous infusion"}}, "data": [{"smiles": "CC[C@H](C)[C@H](NC(=O)[C@H](CO)NC(=O)[C@H](Cc1ccc(O)cc1)NC(=O)[C@H](CC(=O)O)NC(=O)[C@H](CO)NC(=O)[C@@H](NC(=O)[C@H](Cc1ccccc1)NC(=O)[C@@H](NC(=O)CNC(=O)[C@H](CCC(=O)O)NC(=O)[C@H](C)NC(=O)[C@@H](N)Cc1ccc(O)cc1)[C@@H](C)O)[C@@H](C)CC)C(=O)N[C@@H](C)C(=O)N[C@@H](CCSC)C(=O)N[C@@H](CC(=O)O)C(=O)N[C@@H](CCCCN)C(=O)N[C@H](C(=O)N[C@@H](Cc1c[nH]cn1)C(=O)N[C@@H](CCC(N)=O)C(=O)N[C@@H](CCC(N)=O)C(=O)N[C@@H](CC(=O)O)C(=O)N[C@@H](Cc1ccccc1)C(=O)N[C@H](C(=O)N[C@@H](CC(N)=O)C(=O)N[C@@H](Cc1c[nH]c2ccccc12)C(=O)N[C@@H](CC(C)C)C(=O)N[C@@H](CC(C)C)C(=O)N[C@@H](C)C(=O)N[C@@H](CCC(N)=O)C(=O)N[C@@H](CCCCN)C(=O)NCC(=O)N[C@@H](CCCCN)C(=O)N[C@@H](CCCCN)C(=O)N[C@@H](CC(N)=O)C(=O)N[C@@H](CC(=O)O)C(=O)N[C@@H](Cc1c[nH]c2ccccc12)C(=O)N[C@@H](CCCCN)C(=O)N[C@@H](Cc1c[nH]cn1)C(=O)N[C@@H](CC(N)=O)C(=O)N[C@H](C(=O)N[C@H](C(=O)N[C@@H](CCC(N)=O)C(=O)O)[C@@H](C)O)[C@@H](C)CC)C(C)C)[C@@H](C)CC", "note": "[GIP, glucose-dependent insulinotropic polypeptide]", "values": [{"measurement": "Effect on glucagon concentrations", "setting": "[1]", "value": "tended to increase slightly"}, {"measurement": "Effect on plasma concentrations of free fatty acids", "setting": "[2]", "value": "did not alter"}, {"measurement": "Effect on insulin secretion (words; insulin, C-peptide, insulin secretory rates)", "setting": "[3]", "value": "hardly did so"}, {"measurement": "Effect on glucose concentrations", "setting": "[4]", "value": "slight reduction"}]}]}
